Laboratory results from patent US20260098026A1, “M4 ACTIVATORS/MODULATORS AND USES THEREOF” (Cerevel Therapeutics, LLC, priority 2022, published 2026).
pEC50: −log10 of the molar value.

Columns and labels:
Type in all cases: cell-based
[1] = biological target: T1, M5 muscarinic acetylcholine receptor (mAChR) (Homo sapiens, UniProt P08912); assay: FLIPR calcium assay (Fluo 8), M5-overexpressing CHO-K1 cells
T1 construct: expressed in transfected cells; host or cells: CHO-K1
T1 sequence (P08912 1-532): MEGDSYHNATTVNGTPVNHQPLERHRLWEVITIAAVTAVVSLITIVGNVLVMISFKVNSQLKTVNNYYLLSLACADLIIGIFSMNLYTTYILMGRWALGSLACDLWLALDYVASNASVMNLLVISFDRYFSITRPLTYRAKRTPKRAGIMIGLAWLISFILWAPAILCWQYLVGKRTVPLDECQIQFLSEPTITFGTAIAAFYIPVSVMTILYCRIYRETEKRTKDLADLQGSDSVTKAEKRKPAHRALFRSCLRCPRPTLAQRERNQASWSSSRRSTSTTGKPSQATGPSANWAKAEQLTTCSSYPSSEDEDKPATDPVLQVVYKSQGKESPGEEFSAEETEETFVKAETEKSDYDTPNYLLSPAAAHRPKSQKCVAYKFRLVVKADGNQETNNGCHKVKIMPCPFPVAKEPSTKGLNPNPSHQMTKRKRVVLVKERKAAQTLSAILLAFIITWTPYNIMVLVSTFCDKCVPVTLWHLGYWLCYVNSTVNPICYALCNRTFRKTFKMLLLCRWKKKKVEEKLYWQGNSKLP
Protocol: (§1) Stimulation of a Gq-coupled G-protein coupled receptors (GPCRs), result in an efflux of calcium from the endoplasmic reticulum to the cytoplasm (Berridge, 1993), thus rendering this assay appropriate for the assessment of M1, M3 and M5 receptors. CHO-K1 cells overexpressing the M1, M3, or M5 muscarinic acetylcholine receptor (mAChR) were dispensed at 15,000 cells per well in 30 μl volume to 384-well plates and grown overnight at 37° C. in a 5% CO2 atmosphere. Fluo-8 Solution, 10 μl per well, was added to each well and incubated for 30 minutes at 37° C. in a 5% CO2 atmosphere. Compounds diluted in Hanks' balanced salt solution (HBSS) were transferred to the cell assay plate at 10 μl per well, and then read on a FLIPR instrument. EC50 and Emax figures were calculated from the resulting data for each receptor subtype.

[2] = biological target: T2, M1 muscarinic acetylcholine receptor (mAChR) (Homo sapiens, UniProt P11229); assay: FLIPR calcium assay (Fluo 8), M1-overexpressing CHO-K1 cells
T2 construct: expressed in transfected cells; host or cells: CHO-K1
T2 sequence (P11229 1-460): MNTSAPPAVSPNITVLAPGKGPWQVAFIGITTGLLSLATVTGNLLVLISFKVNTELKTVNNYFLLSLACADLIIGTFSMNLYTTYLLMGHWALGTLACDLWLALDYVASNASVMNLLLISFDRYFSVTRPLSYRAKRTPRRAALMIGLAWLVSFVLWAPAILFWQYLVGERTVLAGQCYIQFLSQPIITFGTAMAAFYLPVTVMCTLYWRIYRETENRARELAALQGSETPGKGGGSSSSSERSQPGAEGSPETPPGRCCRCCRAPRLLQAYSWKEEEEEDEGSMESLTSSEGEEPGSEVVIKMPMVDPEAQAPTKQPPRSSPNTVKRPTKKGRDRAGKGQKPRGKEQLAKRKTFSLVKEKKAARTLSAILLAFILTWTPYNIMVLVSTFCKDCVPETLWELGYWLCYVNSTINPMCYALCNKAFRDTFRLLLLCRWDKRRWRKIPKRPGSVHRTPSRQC
Protocol: as §1

[3] = biological target: T3, M4 mAChR (Homo sapiens, UniProt P08173); assay: cAMP TR-FRET assay with forskolin, M4-overexpressing CHO-K1 cells
T3 construct: expressed in transfected cells; host or cells: CHO-K1
T3 sequence (P08173 1-479): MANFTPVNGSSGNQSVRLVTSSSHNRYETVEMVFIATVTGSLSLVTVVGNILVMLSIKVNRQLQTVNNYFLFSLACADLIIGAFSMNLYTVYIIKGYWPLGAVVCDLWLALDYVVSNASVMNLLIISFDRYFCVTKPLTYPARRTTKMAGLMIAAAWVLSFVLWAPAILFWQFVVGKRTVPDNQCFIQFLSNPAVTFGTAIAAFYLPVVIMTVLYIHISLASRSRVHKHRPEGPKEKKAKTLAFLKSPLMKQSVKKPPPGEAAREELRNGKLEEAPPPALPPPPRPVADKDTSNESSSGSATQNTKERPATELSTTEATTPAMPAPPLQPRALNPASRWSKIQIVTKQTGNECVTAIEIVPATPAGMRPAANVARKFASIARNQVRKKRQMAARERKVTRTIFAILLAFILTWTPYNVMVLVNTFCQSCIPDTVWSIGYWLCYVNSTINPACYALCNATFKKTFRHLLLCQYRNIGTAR
Summary of the method: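 CHO-K1 cells overexpressing the receptor were stimulated with forskolin to raise cAMP, so that Gi-mediated agonist decreases could be measured. cAMP was quantified by TR-FRET competition between cellular cAMP and labelled donor for anti-cAMP antibody, giving potency and efficacy.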

[4] = biological target: T4, M3 muscarinic acetylcholine receptor (mAChR) (Homo sapiens, UniProt P20309); assay: FLIPR calcium assay (Fluo 8), M3-overexpressing CHO-K1 cells
T4 construct: expressed in transfected cells; host or cells: CHO-K1
Summary of the method: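 CHO-K1 cells overexpressing each human receptor seeded at 15,000 per well, grown overnight at 37° C., 5% CO2, then loaded with Fluo-8 for 30 min. Compounds in HBSS added and calcium response read on FLIPR; EC50 and Emax calculated per subtype.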

T4 sequence (P20309 whole entry): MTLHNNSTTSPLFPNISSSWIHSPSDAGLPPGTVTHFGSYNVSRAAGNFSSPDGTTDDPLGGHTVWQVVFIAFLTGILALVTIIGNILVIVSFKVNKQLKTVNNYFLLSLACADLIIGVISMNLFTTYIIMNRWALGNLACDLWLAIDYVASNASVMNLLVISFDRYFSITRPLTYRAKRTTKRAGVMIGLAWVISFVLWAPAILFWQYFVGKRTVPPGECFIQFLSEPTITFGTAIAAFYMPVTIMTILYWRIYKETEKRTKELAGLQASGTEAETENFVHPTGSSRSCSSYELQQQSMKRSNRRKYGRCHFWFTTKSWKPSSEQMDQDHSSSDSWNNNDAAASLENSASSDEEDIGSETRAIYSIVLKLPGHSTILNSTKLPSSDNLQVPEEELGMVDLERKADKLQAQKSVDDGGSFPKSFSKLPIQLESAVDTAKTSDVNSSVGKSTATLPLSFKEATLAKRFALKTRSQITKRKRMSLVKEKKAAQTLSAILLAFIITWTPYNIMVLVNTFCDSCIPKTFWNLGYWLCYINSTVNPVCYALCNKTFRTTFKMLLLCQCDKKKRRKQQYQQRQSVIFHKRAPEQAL

Emax ([1]; FLIPR calcium) [%] | Emax ([2]; FLIPR calcium) [%] | Emax ([3]; cAMP TR-FRET with forskolin) [%] | pEC50 ([4]; FLIPR calcium) | Emax ([1]; FLIPR) [%] | Emax ([3]; cAMP assay) [%] | pEC50 ([4]; FLIPR) | Emax ([2]; FLIPR) [%] | SMILES
19 to 49.9 | 19 to 49.9 | 80 to 100 | < 5.00 |  |  |  |  | CCOC(=O)N1CC2(CC[C@@H](N3CCN(c4cc(F)cnc4-c4cnc(SC)nc4)CC3)C2)C1 [Compound A63]
 |  |  |  | 19 to 49.9 | 80 to 100 | < 5.00 |  | CCOC(=O)N1CC2(CC[C@@H](N3CCN(c4cc(F)cnc4-c4cnc(O)c(C)c4)CC3)C2)C1 [Compound A166]
 | < 19 | 80 to 100 | < 5.00 |  |  |  |  | CCOC(=O)N1CC2(CC[C@@H](N3CCN(c4cc(F)cnc4-c4cnc(OC)c(F)c4)CC3)C2)C1 [Compound A139]
19 to 49.9 |  | 80 to 100 | < 5.00 |  |  |  |  | CCOC(=O)N1CC2(CC[C@@H](N3CCN(c4cc(F)cnc4-c4ccc(CO)o4)CC3)C2)C1 [Compound A91]
 | 19 to 49.9 | 80 to 100 | < 5.00 |  |  |  |  | CCOC(=O)N1CC2(CC[C@@H](N3CCN(c4cc(F)cnc4-c4cnc5ccnn5c4)CC3)C2)C1 [Compound A100]
 | 19 to 49.9 | 80 to 100 | < 5.00 |  |  |  |  | CCOC(=O)N1CC2(CC[C@@H](N3CCN(c4cc(F)cnc4-c4conc4C)CC3)C2)C1 [Compound A140]
 | 19 to 49.9 | 80 to 100 | < 5.00 |  |  |  |  | CCOC(=O)N1CC2(CC[C@@H](N3CCN(c4cc(F)cnc4-c4cncs4)CC3)C2)C1 [Compound A59]
 | 19 to 49.9 | 80 to 100 | < 5.00 |  |  |  |  | CCOC(=O)N1CC2(CC[C@@H](N3CCN(c4cc(F)cnc4-c4ccnn4C)CC3)C2)C1 [Compound A67]
19 to 49.9 | 19 to 49.9 | 80 to 100 | < 5.00 |  |  |  |  | CCNc1ncc(-c2ncc(F)cc2N2CCN([C@@H]3CCC4(C3)CN(C(=O)OCC)C4)CC2)cn1 [Compound A80]
 | 19 to 49.9 | 80 to 100 | < 5.00 |  |  |  |  | CCOC(=O)N1CC2(CC[C@@H](N3CCN(c4cc(F)cnc4-c4cnoc4C)CC3)C2)C1 [Compound A113]
 | 19 to 49.9 | 80 to 100 | < 5.00 |  |  |  |  | CCOC(=O)N1CC2(CC[C@@H](N3CCN(c4cc(F)cnc4-c4ccncc4)CC3)C2)C1 [Compound A53]
 | 19 to 49.9 |  | < 5.00 |  |  |  |  | CCOC(=O)N1CC2(CC[C@@H](N3CCN(c4cccnc4N4CCCC4)CC3)C2)C1 [Compound A3, ethyl (6R)-6-[4-(2-pyrrolidin-1-yl-3-pyridyl)piperazin-1-yl]-2-azaspiro[3.4]octane-2-carboxylate]
19 to 49.9 |  | 80 to 100 | < 5.00 |  |  |  |  | CCOC(=O)N1CC2(CC[C@@H](N3CCN(c4cc(F)cnc4-c4cnn(CC(C)C)c4)CC3)C2)C1 [Compound A71]
 | 19 to 49.9 | 80 to 100 | < 5.00 |  |  |  |  | CCOC(=O)N1CC2(CC[C@@H](N3CCN(c4cc(F)cnc4-c4ccnn4CC)CC3)C2)C1 [Compound A93]
 | 19 to 49.9 | 80 to 100 | < 5.00 |  |  |  |  | CCOC(=O)N1CC2(CC[C@@H](N3CCN(c4cc(F)cnc4-c4cnc5c(c4)ncn5C)CC3)C2)C1 [Compound A51]
 |  |  |  |  | 80 to 100 | < 5.00 | 19 to 49.9 | CCOC(=O)N1CC2(CC[C@@H](N3CCN(c4cc(F)cnc4N4CCOCC4)CC3)C2)C1 [Compound A289]

Emax ([1]; FLIPR calcium) [%] | Emax ([2]; FLIPR calcium) [%] | Emax ([3]; cAMP TR-FRET with forskolin) [%] | pEC50 ([4]; FLIPR calcium) | Emax ([1]; FLIPR) [%] | Emax ([3]; cAMP assay) [%] | pEC50 ([4]; FLIPR) | Emax ([2]; FLIPR) [%] | SMILES
19 to 49.9 |  | 80 to 100 | < 5.00 |  |  |  |  | CCOC(=O)N1CC2(CC[C@@H](N3CCN(c4cccnc4-c4cncc(OC)c4)CC3)C2)C1 [Compound A1, ethyl (6R)-6-[4-[2-(5-methoxy-3-pyridyl)-3-pyridyl]piperazin-1-yl]-2-azaspiro[3.4]octane-2-carboxylate]
 |  |  |  |  | 80 to 100 | < 5.00 | 19 to 49.9 | CCOC(=O)N1CC2(CC[C@@H](N3CCN(c4cc(F)cnc4-c4cnc(OC(C)C)nc4)CC3)C2)C1 [Compound A158]
 |  |  |  | 19 to 49.9 | 80 to 100 | < 5.00 | 50 to 79.9 | CCOC(=O)N1CC2(CC[C@@H](N3CCN(c4cc(F)cnc4-c4ccc(=O)[nH]c4)CC3)C2)C1 [Compound A210]
 | 19 to 49.9 | 80 to 100 | < 5.00 |  |  |  |  | CCOC(=O)N1CC2(CC[C@@H](N3CCN(c4cc(F)cnc4-c4ccccc4O)CC3)C2)C1 [Compound A104]
 | 19 to 49.9 | 80 to 100 | < 5.00 |  |  |  |  | CCOC(=O)N1CC2(CC[C@@H](N3CCN(c4cc(F)cnc4-c4ccc(C(=O)NC)cc4)CC3)C2)C1 [Compound A103]
 | 19 to 49.9 | 80 to 100 | < 5.00 |  |  |  |  | CCOC(=O)N1CC2(CC[C@@H](N3CCN(c4cc(F)cnc4-c4ccc(NC(C)=O)nc4)CC3)C2)C1 [Compound A75]
 | 19 to 49.9 | 80 to 100 | < 5.00 |  |  |  |  | CCOC(=O)N1CC2(CC[C@@H](N3CCN(c4cc(F)cnc4-c4cncc(O)c4)CC3)C2)C1 [Compound A82]
 | 19 to 49.9 | 80 to 100 | < 5.00 |  |  |  |  | CCOC(=O)N1CC2(CC[C@@H](N3CCN(c4cc(F)cnc4-c4ccc(F)nc4)CC3)C2)C1 [Compound A2, ethyl (6R)-6-[4-[5-fluoro-2-(6-fluoro-3-pyridyl)-3-pyridyl]piperazin-1-yl]-2-azaspiro[3.4]octane-2-carboxylate]
 |  |  |  | 19 to 49.9 | 80 to 100 | < 5.00 | 19 to 49.9 | CCOC(=O)N1CC2(CC[C@@H](N3CCN(c4cc(F)cnc4-c4c[nH]c(=O)c(F)c4)CC3)C2)C1 [Compound A206]
 | 19 to 49.9 | 80 to 100 | < 5.00 |  |  |  |  | CCOC(=O)N1CC2(CC[C@@H](N3CCN(c4cc(F)cnc4-c4cnc(OC)nc4)CC3)C2)C1 [Compound A146]
 |  |  |  |  | 80 to 100 | < 5.00 | 19 to 49.9 | CCOC(=O)N1CC2(CC[C@@H](N3CCN(c4cc(F)cnc4-c4cnc(C)nc4)CC3)C2)C1 [Compound A185]
 | 50 to 79.9 | 80 to 100 | < 5.00 |  |  |  |  | CCOC(=O)N1CC2(CC[C@@H](N3CCN(c4cc(F)cnc4-c4cccnc4OCC)CC3)C2)C1 [Compound A49]
 | 19 to 49.9 | 80 to 100 | < 5.00 |  |  |  |  | CCOC(=O)N1CC2(CC[C@@H](N3CCN(c4cc(F)cnc4-c4cnc(NC(C)C)nc4)CC3)C2)C1 [Compound A87]
 | 19 to 49.9 | 80 to 100 | < 5.00 |  |  |  |  | CCOC(=O)N1CC2(CC[C@@H](N3CCN(c4cc(F)cnc4-c4cn/c(=N\C)[nH]c4)CC3)C2)C1 [Compound A70]
19 to 49.9 |  | 80 to 100 | < 5.00 |  |  |  |  | CCOC(=O)N1CC2(CC[C@@H](N3CCN(c4cc(F)cnc4-c4cnn(CC)c4)CC3)C2)C1 [Compound A74]
 |  |  |  |  | 80 to 100 | < 5.00 | 19 to 49.9 | CCOC(=O)N1CC2(CC[C@@H](N3CCN(c4cc(F)cnc4-c4cnc(F)nc4)CC3)C2)C1 [Compound A184]
